Reference: patent US8435928B2, “Herbicidal composition” (Ishihara Sangyo Kaisha, Ltd., priority 2007, dated 2013)

Legend:
crabgrass [1] = test: Test Example 3: foliar application of compound No. 238 suspension concentrate with surfactant, crabgrass; assay type: in vivo, Digitaria sanguinalis L.; conditions: 30 g a.i./ha water-based suspension concentrate, 21st day
From the text: On the 21st day after the application, the state of growth of the plants was visually observed (growth inhibition rate (%)=0 (the same as the untreated plot) to 100 (complete kill)), and the results as shown in Tables b1 and b2 were obtained. Upland field soil was put into a 1/1,000,000 ha pot, and seeds of crabgrass were sown and grown in a greenhouse. When crabgrass reached 4.5 to 5.0 leaf stage, a prescribed amount (30 g a.i./ha) of a water-based suspension concentrate comprising compound No. 238 as an active ingredient, prepared in accordance with the above Example 6, was diluted with water corresponding to 300 L/ha (containing 0.05 vol % of a surfactant containing the POA alkyl ether phosphate), followed by foliar application. Further, for comparison, foliar application was carried out in the same manner by using CITOWETT (tradename) at a concentration of 0.3 vol %, instead of the above surfactant. On the 21st day after the application, the state of growth of the plant was evaluated in the same manner as in Test Example 1, and the results as shown in Table b5 were obtained.

crabgrass [2] = test: Test Example 6: foliar application of compound No. 238 suspension concentrate with surfactant and optional oil or emulsifying agent, crabgrass; assay type: in vivo, Digitaria sanguinalis L.; conditions: 7 g a.i./ha suspension concentrate, ADEKA COL PS-440E 0.03 vol %, 20th day
From the text: (§1) On the 21st day after the application, the state of growth of the plants was visually observed (growth inhibition rate (%)=0 (the same as the untreated plot) to 100 (complete kill)), and the results as shown in Tables b1 and b2 were obtained.
Upland field soil was put into a 1/1,000,000 ha pot, and seeds of crabgrass were sown and grown in a greenhouse. When crabgrass reached 3.8 to 4.1 leaf stage, a prescribed amount (7 g a.i./ha) of a water-based suspension concentrate comprising compound No. 238 as an active ingredient, prepared in accordance with the above Example 3, was diluted with water corresponding to 300 L/ha (containing 0.03 vol % of a surfactant containing the POA alkyl ether phosphate and optionally having 0.03 vol % of a fatty acid ester, a hydrocarbon solvent or an emulsifying agent added), followed by foliar application. The fatty acid ester used here was AGNIQUE Me 18RD-F (tradename), the hydrocarbon solvent was Solvesso 150 (tradename) and the emulsifying agent was a mixture of a polyoxyethylene sorbitol tetraoleate, a polyoxyethylene castor oil and calcium dodecylbenzene sulfonate.
On the 20th day after the application, the state of growth of the plant was evaluated in the same manner as in Test Example 1, and the results as shown in Table b9 were obtained.

crabgrass [3] = test: Test Example 7: foliar application of compound No. 2-1 wettable powder with surfactant, crabgrass; assay type: in vivo, Digitaria sanguinalis L.; conditions: 15 g a.i./ha wettable powder, 21st day
From the text: as §1
(§2) Upland field soil was put into a 1/1,000,000 ha pot, and seeds of crabgrass were sown and grown in a greenhouse. When crabgrass reached 4.0 to 5.0 leaf stage, a prescribed amount (15 g a.i./ha) of a wettable powder comprising compound No. 2-1 as an active ingredient, prepared in accordance with the above Example 1, was diluted with water corresponding to 300 L/ha (containing 0.05 vol % of a surfactant containing the POA alkyl ether phosphate), followed by foliar application. Further, for comparison, foliar application was carried out in the same manner by using a silicon surfactant (tradename: SILWETT L-77) at a concentration of 0.1 vol % instead of the above surfactant.
On the 21st day after the application, the state of growth of the plant was evaluated in the same manner as in Test Example 1, and the results as shown in Table b10 were obtained.

[4] = tested on: crabgrass (Digitaria sanguinalis L.); test: Test Example 2: foliar application of compound No. 53 suspension concentrate with surfactant, crabgrass; assay type: in vivo; conditions: 15 g a.i./ha water-based suspension concentrate, 21st day
Description: (§3) Upland field soil was put into a 1/1,000,000 ha pot, and seeds of crabgrass (Digitaria sanguinalis L.) and velvetleaf (Abutilon theophrasti L.) were respectively sown and grown in a greenhouse. When crabgrass reached 4.2 to 5.0 leaf stage and velvetleaf reached 3.5 to 4.3 leaf stage, a prescribed amount (15 g a.i./ha) of a wettable powder comprising compound No. 1 as an active ingredient, prepared in accordance with the above Example 1, was diluted with water corresponding to 300 L/ha (containing 0.05 vol % of a surfactant containing the POA alkyl ether phosphate), followed by foliar application (the present invention). Further, for comparison, foliar application was carried out in the same manner by using an alkylaryl polyglycol ether surfactant (tradename: CITOWETT) at a concentration of 0.1 vol %, instead of the above surfactant (comparison).
as §1
(§4) The results as shown in Tables b3 and b4 were obtained in the same manner as the above Test Example 1 except that a prescribed amount (15 g a.i./ha) of a water-based suspension concentrate comprising compound No. 53 as an active ingredient, prepared in accordance with the above Example 2, was used.

[5] = tested on: velvetleaf (Abutilon theophrasti L.); test: Test Example 2: foliar application of compound No. 53 suspension concentrate with surfactant, velvetleaf; assay type: in vivo; conditions: 15 g a.i./ha water-based suspension concentrate, 21st day
Description: as §3, §1, §4

crabgrass [6] = test: Test Example 11: foliar application of compound No. 4-3 wettable powder with surfactant, crabgrass; assay type: in vivo, Digitaria sanguinalis L.; conditions: 15 g a.i./ha wettable powder, 21st day
From the text: as §1
as §2, with “4-3” for “2-1”, “using” for “using a silicon surfactant (tradename:”, “L-77 (tradename)” for “L-77)”
On the 21st day after the application, the state of growth of the plant was evaluated in the same manner as in Test Example 1, and the results as shown in Table b16 were obtained.

crabgrass [7] = test: Test Example 9: foliar application of compound No. 2-39 wettable powder with surfactant, crabgrass; assay type: in vivo, Digitaria sanguinalis L.; conditions: 15 g a.i./ha wettable powder, 21st day
From the text: as §1
as §2, with “4.5” for “5.0”, “2-39” for “2-1”, “using” for “using a silicon surfactant (tradename:”, “L-77” for “L-77)”
On the 21st day after the application, the state of growth of the plant was evaluated in the same manner as in Test Example 1, and the results as shown in Table b13 were obtained.

[8] = tested on: crabgrass (Digitaria sanguinalis L.); test: Test Example 1: foliar application of compound No. 1 wettable powder with surfactant, visual growth inhibition, crabgrass; assay type: in vivo; conditions: 15 g a.i./ha wettable powder, 21st day
Description: as §3, §1

[9] = tested on: velvetleaf (Abutilon theophrasti L.); test: Test Example 1: foliar application of compound No. 1 wettable powder with surfactant, visual growth inhibition, velvetleaf; assay type: in vivo; conditions: 15 g a.i./ha wettable powder, 21st day
Description: as §3, §1

[10] = tested on: crabgrass (Digitaria sanguinalis L.); test: Test Example 4: foliar application of compound No. 2-27 wettable powder with surfactant, crabgrass; assay type: in vivo; conditions: 15 g a.i./ha wettable powder, 21st day
Description: as §3, §1
(§5) The results as shown in Tables b6 and b7 were obtained in the same manner as in the above Test Example 1 except that a prescribed amount (15 g a.i./ha or 7 g a.i./ha) of a wettable powder comprising compound No. 2-27 as an active ingredient, prepared in accordance with the above Example 4, was used.

[11] = tested on: velvetleaf (Abutilon theophrasti L.); test: Test Example 4: foliar application of compound No. 2-27 wettable powder with surfactant, velvetleaf; assay type: in vivo; conditions: 7 g a.i./ha wettable powder, 21st day
Description: as §3, §1, §5

[12] = surfactant NIKKOL DDP-8 0.05 vol %, present invention
[13] = surfactant NIKKOL TDP-8 0.05 vol %, present invention
[14] = surfactant PLYSURF A219B 0.05 vol %, present invention
[15] = surfactant PHOSPHANOL RS-710 0.05 vol %, present invention
[16] = surfactant SILWETT L-77 0.1 vol %, comparison
[17] = surfactant ADECA COL PS-440E 0.05 vol %, present invention
[18] = surfactant CITOWETT 0.1 vol %, comparison
[19] = surfactant PHOSPHANOL RS-410 0.05 vol %, present invention

For `COCCOc1c(S(C)(=O)=O)ccc(C(=O)c2cnn(C)c2OC(=O)SC(C)(C)C)c1C` [Compound No. 238], the “Growth inhibition rate (%) of crabgrass” value (crabgrass [1]; surfactant ADEKA COL PS-440E 0.05 vol %, present invention) was 75%, the “Growth inhibition rate (%) of crabgrass” value (crabgrass [1]; surfactant CITOWETT 0.3 vol %, comparison) was 50% and the “Growth inhibition rate (%) of crabgrass” value (crabgrass [1]; [12]) was 90%. The “Growth inhibition rate (%) of crabgrass” value (crabgrass [1]; [13]) was 90%, the “Growth inhibition rate (%) of crabgrass” value (crabgrass [1]; surfactant PHOSPHANOL RS710 0.05 vol %, present invention) was 80% and the “Growth inhibition rate (%) of crabgrass” value (crabgrass [1]; [14]) was 90%. The “Growth inhibition rate (%) of crabgrass” value (crabgrass [2]; fatty acid ester and emulsifying agent added) was 83%, the “Growth inhibition rate (%) of crabgrass” value (crabgrass [2]; fatty acid ester, hydrocarbon solvent and emulsifying agent added) was 85% and the “Growth inhibition rate (%) of crabgrass” value (crabgrass [2]; hydrocarbon solvent and emulsifying agent added) was 83%. For the same compound, the “Growth inhibition rate (%) of crabgrass” value (crabgrass [2]; no fatty acid ester, hydrocarbon solvent or emulsifying agent) was 73%.

`COC(=O)c1c(S(C)(=O)=O)ccc(C(=O)c2cnn(C)c2O)c1C` [2-1] was tested, and the “Growth inhibition rate (%) of crabgrass” value (crabgrass [3]; [15]) was 75%, the “Growth inhibition rate (%) of crabgrass” value (crabgrass [3]; [14]) was 70% and the “Growth inhibition rate (%) of crabgrass” value (crabgrass [3]; [16]) was 10%.

`CCSC(=O)Oc1c(C(=O)c2ccc(S(C)(=O)=O)c(OCCOC)c2C)cnn1C` [Compound No. 53] was tested, and the “Growth inhibition rate (%) of crabgrass” value [4, 17] was 90%, the “Growth inhibition rate (%) of crabgrass” value [4, 18] was 50% and the “Growth inhibition rate (%) of crabgrass” value [4, 12] was 90%. For the same compound, the “Growth inhibition rate (%) of crabgrass” value [4, 14] was 78%, the “Growth inhibition rate (%) of velvetleaf” value [5, 17] was 93% and the “Growth inhibition rate (%) of velvetleaf” value [5, 18] was 78%. The “Growth inhibition rate (%) of velvetleaf” value [5, 12] was 98% and the “Growth inhibition rate (%) of velvetleaf” value [5, 14] was 90%.

With `CCOC(=O)OC(C)Oc1c(C(=O)c2ccc(S(C)(=O)=O)c(OCCOC)c2C)cnn1CC` (centres unmarked) [Compound No. 4-3] the “Growth inhibition rate (%) of crabgrass” value (crabgrass [6]; [17]) was 83%, the “Growth inhibition rate (%) of crabgrass” value (crabgrass [6]; [12]) was 80% and the “Growth inhibition rate (%) of crabgrass” value (crabgrass [6]; [13]) was 85%. For the same compound, the “Growth inhibition rate (%) of crabgrass” value (crabgrass [6]; surfactant PHOSPHANOL ML-240 0.05 vol %, present invention) was 90%, the “Growth inhibition rate (%) of crabgrass” value (crabgrass [6]; [19]) was 80% and the “Growth inhibition rate (%) of crabgrass” value (crabgrass [6]; [15]) was 80%. For the same compound, the “Growth inhibition rate (%) of crabgrass” value (crabgrass [6]; surfactant PHOSPHOLAN PS-236 0.05 vol %, present invention) was 80%, the “Growth inhibition rate (%) of crabgrass” value (crabgrass [6]; [14]) was 98% and the “Growth inhibition rate (%) of crabgrass” value (crabgrass [6]; [16]) was 55%.

With `CCOCc1c(S(C)(=O)=O)ccc(C(=O)c2cnn(C)c2O)c1C` [2-39] the “Growth inhibition rate (%) of crabgrass” value (crabgrass [7]; [17]) was 93%, the “Growth inhibition rate (%) of crabgrass” value (crabgrass [7]; [12]) was 93% and the “Growth inhibition rate (%) of crabgrass” value (crabgrass [7]; [19]) was 70%. The “Growth inhibition rate (%) of crabgrass” value (crabgrass [7]; [16]) was 20%.

With `CCSC(=O)Oc1c(C(=O)c2ccc(S(C)(=O)=O)c(C(=O)OC)c2C)cnn1C` [Compound No. 1] the “Growth inhibition rate (%) of crabgrass” value [8, 17] was 70%, the “Growth inhibition rate (%) of crabgrass” value [8, 18] was 50% and the “Growth inhibition rate (%) of crabgrass” value [8, 12] was 73%. The “Growth inhibition rate (%) of crabgrass” value [8, 14] was 60%, the “Growth inhibition rate (%) of velvetleaf” value [9, 17] was 93% and the “Growth inhibition rate (%) of velvetleaf” value [9, 18] was 73%. For the same compound, the “Growth inhibition rate (%) of velvetleaf” value [9, 12] was 93% and the “Growth inhibition rate (%) of velvetleaf” value [9, 14] was 90%.

With `COCCOc1c(S(C)(=O)=O)ccc(C(=O)c2cnn(C)c2O)c1C` [Compound No. 2-27] the “Growth inhibition rate (%) of crabgrass” value [10, 17] was 90%, the “Growth inhibition rate (%) of crabgrass” value [10, 18] was 78% and the “Growth inhibition rate (%) of crabgrass” value [10, 12] was 90%. For the same compound, the “Growth inhibition rate (%) of crabgrass” value [10, 14] was 94%, the “Growth inhibition rate (%) of velvetleaf” value [11, 17] was 80% and the “Growth inhibition rate (%) of velvetleaf” value [11, 18] was 63%. For the same compound, the “Growth inhibition rate (%) of velvetleaf” value [11, 12] was 95% and the “Growth inhibition rate (%) of velvetleaf” value [11, 14] was 70%.
